This is an account of results in patent publication US12514845B2, “Ionic-liquid-based formulations for the prevention or treatment of neurological diseases” (Universidade De Aveiro, priority 2022, dated 2026).

As usually defined, the solubility is the dissolved amount per volume that the medium holds.

Where two headings read alike, the source gives them in different places.

Series [1] in a line: Solubility in water and PBS (saturation, UV-spectroscopy). It is filed as physicochemical. The settings on record: thermodynamic from solid, 37° C., minimum 72 h. As for the experimental part:
In an embodiment, the solutes N1(4)inh and mixture comprising [Chol]2[N1(4)inh]+N1(4)inh were added in excess to a fixed volume (500 μL) of water and PBS solution. These mixtures were incubated at 37° C., under constant agitation 1150 rpm and for a minimum of 72 h, using an Eppendorf Thermomixer Comfort equipment. Throughout this process, solute was added to the mixture, whenever necessary, i.e., until the solution saturation. All samples were filtered using syringe filters ([…]) to remove possible suspended solid particles.
In an embodiment, the quantification of N1(4)inh and [Chol]2[N1(4)inh] was carried by UV-spectroscopy, using a UV-spectrophotometry (SYNERGY|HT microplate reader, BioTek) at a wavelength of 416 nm and 480 nm, respectively. The interference of the PBS with the quantification method was also ascertained and blank control samples were always used.
In an embodiment, solutes (N1(4)inh and [Chol]2[N1(4)inh]+N1(4)inh) were added in excess to a fixed volume (500 μL) of water and PBS solution. […] The quantification of N1(4)inh and [Chol]2[N1(4)inh]+N1(4)inh was carried by UV-spectroscopy, using a UV-spectrophotometry (SYNERGY|HT microplate reader, BioTek) at a wavelength of 416 nm and 480 nm, respectively. The interference of the PBS with the quantification method was also ascertained and blank control samples were always used.

A short description of series [2]: Decomposition temperature by thermogravimetric analysis (TGA). It is filed as physicochemical. Conditions: TGA (FIG. 5). Here is the method: In an embodiment, the decomposition temperature of [Chol]2[N1(4)inh]+N1(4)inh was evaluated by thermogravimetric analysis (TGA) and the results disclose that the mixture is thermally stable up to 200° C., as disclosed in FIG. 5.
In an embodiment, the decomposition temperature was determined by thermogravimetric analysis (TGA).

The target in another series is T1, Nox1 (Homo sapiens, UniProt Q9Y5S8).
T1 construct: host or cells: drosophila
T1 sequence (Q9Y5S8 1-564): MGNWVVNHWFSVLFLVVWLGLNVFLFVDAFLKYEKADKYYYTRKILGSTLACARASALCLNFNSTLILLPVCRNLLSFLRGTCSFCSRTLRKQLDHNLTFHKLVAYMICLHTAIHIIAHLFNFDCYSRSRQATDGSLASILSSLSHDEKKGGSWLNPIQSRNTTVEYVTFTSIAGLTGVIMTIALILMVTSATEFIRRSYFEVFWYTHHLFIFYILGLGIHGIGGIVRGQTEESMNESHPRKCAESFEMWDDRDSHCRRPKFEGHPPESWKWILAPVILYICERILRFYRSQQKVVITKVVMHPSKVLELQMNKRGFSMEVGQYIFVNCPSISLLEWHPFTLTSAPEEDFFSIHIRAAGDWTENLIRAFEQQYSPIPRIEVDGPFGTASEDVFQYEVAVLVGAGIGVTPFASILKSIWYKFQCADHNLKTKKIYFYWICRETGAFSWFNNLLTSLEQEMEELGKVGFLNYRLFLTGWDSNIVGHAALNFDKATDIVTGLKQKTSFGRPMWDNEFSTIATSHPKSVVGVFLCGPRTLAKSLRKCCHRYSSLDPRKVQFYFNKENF
The settings on record: Bae et al. 2016; cited from earlier work.

Another series addresses T2, Nox4 (Homo sapiens, UniProt Q9NPH5).
T2 construct: host or cells: drosophila
T2 sequence (Q9NPH5 1-578): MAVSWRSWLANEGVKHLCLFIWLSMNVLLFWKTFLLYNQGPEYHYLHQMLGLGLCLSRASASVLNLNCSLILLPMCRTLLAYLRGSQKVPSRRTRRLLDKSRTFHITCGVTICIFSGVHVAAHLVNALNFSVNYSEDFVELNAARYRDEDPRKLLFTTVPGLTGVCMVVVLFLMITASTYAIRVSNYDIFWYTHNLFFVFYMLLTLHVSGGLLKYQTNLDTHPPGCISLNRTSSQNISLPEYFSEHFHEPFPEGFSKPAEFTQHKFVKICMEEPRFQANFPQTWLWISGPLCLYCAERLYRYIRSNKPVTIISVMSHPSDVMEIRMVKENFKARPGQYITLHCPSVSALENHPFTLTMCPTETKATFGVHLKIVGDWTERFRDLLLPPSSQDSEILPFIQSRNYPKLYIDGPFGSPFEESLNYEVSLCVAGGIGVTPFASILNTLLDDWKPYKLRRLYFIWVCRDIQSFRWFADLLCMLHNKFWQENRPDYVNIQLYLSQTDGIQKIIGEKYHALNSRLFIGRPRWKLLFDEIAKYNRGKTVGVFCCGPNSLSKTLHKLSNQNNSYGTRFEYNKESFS
The settings on record: Bae et al. 2016; cited from earlier work.

Another series concerns dopaminergic neurons. Conditions: experimental models of PD; Cristóvão et al. 2019; cited from earlier work.

Take `CN1C(=S)N(C2CCCCC2)C(=O)C1=Cc1ccc(O)cc1O` [N1(4)inh, 3-cyclohexyl-5-(2,4-dihydroxybenzylidene)-1-methyl-2-thiohydantoin]: the solubility in series [1] (aqueous buffer, PBS, read-out: solubility in PBS) amounted to 8 ± 1 µg/mL; in series [1] (water, read-out: solubility in water), 11 ± 2 µg/mL. The “decomposition temperature (thermal stability)” value in series [2] was 200 °C. Further, the “inhibition of Nox1” value on Nox1 was “effective inhibitor”. Moreover, the “inhibition of Nox4” value at Nox4 is on record as “partial inhibitor”. The neuroprotective potential result in the series on dopaminergic neurons is “high neuroprotective potential”.
